Laboratory results published in the supplement of paper PMC10307832.

Experiments:
Assay in all cases: relative viability (nuclei count vs DMSO), 5 days (fraction); higher = more cells survive
[1] = test system: NCI-H596
Summary of the method: (§1)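 For relative viability, nuclei counts in treated wells were divided by those in vehicle wells. Lung cancer cell lines had been pin-tool dosed in 1536-well plates the day after seeding and cultured for 5 days, then fixed and stained in one step (final 0.05% Triton X-100, 1% formaldehyde, 1 ug/ml Hoechst) and imaged at 4×. Doses were one drug alone or a fixed anchor-drug dose plus five library-drug doses (not always all listed) in √10 steps, and values are duplicate-plate medians.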

[2] = test system: LU99A
Summary of the method: as §1

[3] = test system: HCC-15
Summary of the method: as §1

[4] = test system: COR-L23
Summary of the method: as §1

[5] = test system: HCC-366
Summary of the method: as §1

[6] = test system: RERF-LC-KJ
Summary of the method: as §1

[7] = test system: HCC-78
Summary of the method: as §1

[8] = test system: NCI-H1650
Summary of the method: as §1

[9] = test system: BEN
Summary of the method: as §1

[10] = test system: HARA
Summary of the method: as §1

[11] = test system: HCC-827
Summary of the method: as §1

[12] = test system: SK-LU-1
Summary of the method: as §1

O=C(O)CCCCC(CCSCc1ccccc1)SCc1ccccc1 (configuration not stated) [CPI-613] + CS(=O)(=O)N1CCN(Cc2cc3nc(-c4cccc5[nH]ncc45)nc(N4CCOCC4)c3s2)CC1 [Pictilisib] (partner 1 µM)
relative viability ([1]; first compound 50 µM): 0.435
relative viability ([1]; first compound 158.11 µM): 0.339
relative viability ([1]; first compound 500 µM): 0.0372
relative viability ([2]; first compound 5 µM): 0.289
relative viability ([2]; first compound 15.81 µM): 0.322
relative viability ([2]; first compound 50 µM): 0.339
relative viability ([2]; first compound 158.11 µM): 0.256
relative viability ([2]; first compound 500 µM): 0.0798
relative viability ([3]; first compound 5 µM): 0.604
relative viability ([3]; first compound 15.81 µM): 0.664
relative viability ([3]; first compound 50 µM): 0.603
relative viability ([3]; first compound 158.11 µM): 0.629
relative viability ([3]; first compound 500 µM): 0.238
relative viability ([4]; first compound 5 µM): 0.639
relative viability ([4]; first compound 15.81 µM): 0.689
relative viability ([4]; first compound 50 µM): 0.621
relative viability ([4]; first compound 158.11 µM): 0.393
relative viability ([4]; first compound 500 µM): 0.007
relative viability ([5]; first compound 5 µM): 0.149
relative viability ([5]; first compound 15.81 µM): 0.144
relative viability ([5]; first compound 50 µM): 0.154
relative viability ([5]; first compound 158.11 µM): 0.12
relative viability ([5]; first compound 500 µM): 0.157
relative viability ([6]; first compound 5 µM): 0.455
relative viability ([6]; first compound 15.81 µM): 0.496
relative viability ([6]; first compound 50 µM): 0.605
relative viability ([6]; first compound 158.11 µM): 0.558
relative viability ([6]; first compound 500 µM): 0.438
relative viability ([7]; first compound 5 µM): 0.203
relative viability ([7]; first compound 15.81 µM): 0.167
relative viability ([7]; first compound 158.11 µM): 0.156
relative viability ([7]; first compound 500 µM): 0.206
relative viability ([8]; first compound 5 µM): 0.597
relative viability ([8]; first compound 15.81 µM): 0.477
relative viability ([8]; first compound 50 µM): 0.638
relative viability ([8]; first compound 158.11 µM): 0.109
relative viability ([8]; first compound 500 µM): 0.0271
relative viability ([9]; first compound 5 µM): 0.527
relative viability ([9]; first compound 15.81 µM): 0.423
relative viability ([9]; first compound 50 µM): 0.503
relative viability ([9]; first compound 158.11 µM): 0.452
relative viability ([9]; first compound 500 µM): 0.495
relative viability ([10]; first compound 5 µM): 0.474
relative viability ([10]; first compound 15.81 µM): 0.409
relative viability ([10]; first compound 50 µM): 0.281
relative viability ([10]; first compound 158.11 µM): 0.242
relative viability ([10]; first compound 500 µM): 0.084
relative viability ([11]; first compound 5 µM): 0.94
relative viability ([11]; first compound 15.81 µM): 0.964
relative viability ([11]; first compound 50 µM): 0.887
relative viability ([11]; first compound 158.11 µM): 0.833
relative viability ([11]; first compound 500 µM): 0.79
relative viability ([12]; first compound 5 µM): 0.533
relative viability ([12]; first compound 15.81 µM): 0.428
relative viability ([12]; first compound 50 µM): 0.49
relative viability ([12]; first compound 158.11 µM): 0.46
relative viability ([12]; first compound 500 µM): 0.264
